Test results published in PubChem BioAssay AID248 (DTP/NCI, 2004).
Values joined by “and” are separate entries in the source; they are usually repeats but may differ in a detail not shown here. Equal values may be shown once. Toxic doses and inconclusive results are not listed.

System: L1210 leukemia ip in BDF1 mice, survival T/C
Experiment: NCI In Vivo Anticancer Drug Screen. Data for tumor model L1210 Leukemia (intraperitoneal) in B6D2F1 (BDF1) mice
Details: higher = longer survival
Outline: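 Mice bearing the transplanted tumor received compound or vehicle. Survival of the treated group was divided by that of the vehicle-treated control group to give the ratio.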

SMILES: O=c1[nH]c(=O)n([C@H]2CCCO2)cc1F
- T/C (endpoint: mean survival time, dose: 2.5 mg/kg/injection, schedule: Q01DX009 (ip), vehicle: saline): 97 % of control
- T/C (endpoint: mean survival time, dose: 5.0 mg/kg/injection, schedule: Q01DX009 (ip), vehicle: saline): 98 % of control
- T/C (endpoint: mean survival time, dose: 5.0 mg/kg/injection, schedule: Q01DX009 (oral), vehicle: saline): 102 % of control
- T/C (endpoint: mean survival time, dose: 10.0 mg/kg/injection, schedule: Q01DX009 (ip), vehicle: saline): 100 % of control
- T/C (endpoint: mean survival time, dose: 10.0 mg/kg/injection, schedule: Q01DX009 (oral), vehicle: saline): 103 % of control
- T/C (endpoint: mean survival time, dose: 20.0 mg/kg/injection, schedule: Q01DX009 (ip), vehicle: saline): 103 % of control
- T/C (endpoint: mean survival time, dose: 20.0 mg/kg/injection, schedule: Q01DX009 (oral), vehicle: saline): 112 % of control
- T/C (endpoint: mean survival time, dose: 38.9 mg/kg/injection, schedule: Q01DX009 (ip), vehicle: saline): 97 % of control
- T/C (endpoint: mean survival time, dose: 39.0 mg/kg/injection, schedule: Q01DX009 (ip), vehicle: Klucel (hydroxypropylcellulose) (HPC)): 111 % of control
- T/C (endpoint: mean survival time, dose: 40.0 mg/kg/injection, schedule: Q01DX009 (ip), vehicle: saline): 101 % of control
- T/C (endpoint: mean survival time, dose: 40.0 mg/kg/injection, schedule: Q01DX009 (oral), vehicle: saline): 107 % of control
- T/C (endpoint: mean survival time, dose: 64.8 mg/kg/injection, schedule: Q01DX009 (ip), vehicle: saline): 107 % of control
- T/C (endpoint: mean survival time, dose: 65.0 mg/kg/injection, schedule: Q01DX009 (ip), vehicle: Klucel (hydroxypropylcellulose) (HPC)): 123 % of control
- T/C (endpoint: mean survival time, dose: 75.0 mg/kg/injection, schedule: Q04DX003 (ip), vehicle: other): 95 % of control
- T/C (endpoint: mean survival time, dose: 80.0 mg/kg/injection, schedule: Q01DX009 (ip), vehicle: saline): 114 % of control
- T/C (endpoint: mean survival time, dose: 80.0 mg/kg/injection, schedule: Q01DX009 (oral), vehicle: saline): 118 % of control
- T/C (endpoint: mean survival time, dose: 105.0 mg/kg/injection, schedule: Q01DX012 (sc), vehicle: clinical formulation): 159 % of control
- T/C (endpoint: mean survival time, dose: 108.0 mg/kg/injection, schedule: Q01DX009 (ip), vehicle: Klucel (hydroxypropylcellulose) (HPC)): 159 % of control
- T/C (endpoint: mean survival time, dose: 108.0 mg/kg/injection, schedule: Q04DX003 (ip), vehicle: Klucel (hydroxypropylcellulose) (HPC)): 113 % of control
- T/C (endpoint: mean survival time, dose: 150.0 mg/kg/injection, schedule: Q04DX003 (ip), vehicle: other): 111 % of control
- T/C (endpoint: mean survival time, dose: 160.0 mg/kg/injection, schedule: Q01DX009 (ip), vehicle: saline): 150 % of control
- T/C (endpoint: mean survival time, dose: 160.0 mg/kg/injection, schedule: Q01DX009 (oral), vehicle: saline): 113 % of control
- T/C (endpoint: mean survival time, dose: 164.0 mg/kg/injection, schedule: Q01DX005 (sc), vehicle: clinical formulation): 159 % of control
- T/C (endpoint: mean survival time, dose: 164.0 mg/kg/injection, schedule: Q01DX012 (sc), vehicle: clinical formulation): 121 % of control
- T/C (endpoint: mean survival time, dose: 168.0 mg/kg/injection, schedule: Q01DX001 (ip), vehicle: other): 99 % of control and 107 % of control
- T/C (endpoint: mean survival time, dose: 168.0 mg/kg/injection, schedule: Q01DX001 (sc), vehicle: other): 107 % of control and 116 % of control
- T/C (endpoint: mean survival time, dose: 205.0 mg/kg/injection, schedule: Q01DX005 (sc), vehicle: clinical formulation): 97 % of control
- T/C (endpoint: mean survival time, dose: 205.0 mg/kg/injection, schedule: Q01DX012 (sc), vehicle: clinical formulation): 106 % of control
- T/C (endpoint: mean survival time, dose: 240.0 mg/kg/injection, schedule: Q01DX001 (ip), vehicle: other): 116 % of control and 121 % of control
- T/C (endpoint: mean survival time, dose: 240.0 mg/kg/injection, schedule: Q01DX001 (sc), vehicle: other): 112 % of control and 117 % of control
- T/C (endpoint: mean survival time, dose: 256.0 mg/kg/injection, schedule: Q01DX002 (sc), vehicle: clinical formulation): 111 % of control
- T/C (endpoint: mean survival time, dose: 256.0 mg/kg/injection, schedule: Q01DX005 (sc), vehicle: clinical formulation): 102 % of control
- T/C (endpoint: mean survival time, dose: 300.0 mg/kg/injection, schedule: Q01DX001 (ip), vehicle: Klucel (hydroxypropylcellulose) (HPC)): 98 % of control
- T/C (endpoint: mean survival time, dose: 300.0 mg/kg/injection, schedule: Q01DX009 (ip), vehicle: Klucel (hydroxypropylcellulose) (HPC)): 114 % of control
- T/C (endpoint: mean survival time, dose: 300.0 mg/kg/injection, schedule: Q01DX009 (ip), vehicle: saline): 102 % of control
- T/C (endpoint: mean survival time, dose: 300.0 mg/kg/injection, schedule: Q04DX003 (ip), vehicle: Klucel (hydroxypropylcellulose) (HPC)): 152 % of control
- T/C (endpoint: mean survival time, dose: 300.0 mg/kg/injection, schedule: Q04DX003 (ip), vehicle: other): 161 % of control
- T/C (endpoint: mean survival time, dose: 320.0 mg/kg/injection, schedule: Q01DX009 (ip), vehicle: saline): 160 % of control
- T/C (endpoint: mean survival time, dose: 320.0 mg/kg/injection, schedule: Q01DX009 (oral), vehicle: saline): 98 % of control
- T/C (endpoint: mean survival time, dose: 363.0 mg/kg/injection, schedule: Q01DX001 (ip), vehicle: other): 121 % of control
- T/C (endpoint: mean survival time, dose: 400.0 mg/kg/injection, schedule: Q01DX001 (sc), vehicle: clinical formulation): 121 % of control
- T/C (endpoint: mean survival time, dose: 490.0 mg/kg/injection, schedule: Q01DX001 (ip), vehicle: other): 121 % of control
- T/C (endpoint: mean survival time, dose: 500.0 mg/kg/injection, schedule: Q01DX001 (ip), vehicle: Klucel (hydroxypropylcellulose) (HPC)): 117 % of control
- T/C (endpoint: mean survival time, dose: 500.0 mg/kg/injection, schedule: Q01DX001 (sc), vehicle: clinical formulation): 123 % of control
- T/C (endpoint: mean survival time, dose: 500.0 mg/kg/injection, schedule: Q01DX002 (sc), vehicle: clinical formulation): 110 % of control
- T/C (endpoint: mean survival time, dose: 600.0 mg/kg/injection, schedule: Q04DX003 (ip), vehicle: other): 116 % of control
- T/C (endpoint: mean survival time, dose: 600.0 mg/kg/injection, schedule: Q04DX003 (ip), vehicle: saline with Tween-80): 124 % of control
- T/C (endpoint: mean survival time, dose: 640.0 mg/kg/injection, schedule: Q01DX009 (ip), vehicle: saline): 104 % of control
- T/C (endpoint: mean survival time, dose: 700.0 mg/kg/injection, schedule: Q01DX001 (ip), vehicle: other): 111 % of control
- T/C (endpoint: mean survival time, dose: 700.0 mg/kg/injection, schedule: Q01DX001 (sc), vehicle: other): 111 % of control
- T/C (endpoint: mean survival time, dose: 781.0 mg/kg/injection, schedule: Q04DX002 (sc), vehicle: clinical formulation): 100 % of control
- T/C (endpoint: mean survival time, dose: 977.0 mg/kg/injection, schedule: Q01DX001 (sc), vehicle: clinical formulation): 107 % of control
- T/C (endpoint: mean survival time, dose: 1000.0 mg/kg/injection, schedule: Q01DX001 (ip), vehicle: other): 96 % of control
- T/C (endpoint: mean survival time, dose: 1200.0 mg/kg/injection, schedule: Q04DX003 (ip), vehicle: other): 93 % of control
- T/C (endpoint: mean survival time, dose: 1300.0 mg/kg/injection, schedule: Q01DX001 (ip), vehicle: Klucel (hydroxypropylcellulose) (HPC)): 150 % of control
- T/C (endpoint: mean survival time, dose: 1428.0 mg/kg/injection, schedule: Q01DX001 (ip), vehicle: other): 102 % of control
- T/C (endpoint: mean survival time, dose: 1428.0 mg/kg/injection, schedule: Q01DX001 (sc), vehicle: other): 101 % of control
- T/C (endpoint: mean survival time, dose: 2300.0 mg/kg/injection, schedule: Q01DX001 (ip), vehicle: Klucel (hydroxypropylcellulose) (HPC)): 115 % of control
- T/C (endpoint: median survival time, dose: 5.0 mg/kg/injection, schedule: Q03HX008 (ip), vehicle: other): 95 % of control
- T/C (endpoint: median survival time, dose: 5.0 mg/kg/injection, schedule: Q03HX024 (ip), vehicle: other): 95 % of control
- T/C (endpoint: median survival time, dose: 9.0 mg/kg/injection, schedule: Q03HX008 (ip), vehicle: other): 96 % of control
- T/C (endpoint: median survival time, dose: 9.0 mg/kg/injection, schedule: Q03HX024 (ip), vehicle: other): 102 % of control
- T/C (endpoint: median survival time, dose: 14.0 mg/kg/injection, schedule: Q01DX009 (ip), vehicle: other): 100 % of control
- T/C (endpoint: median survival time, dose: 14.0 mg/kg/injection, schedule: Q03HX008 (ip), vehicle: other): 94 % of control
- T/C (endpoint: median survival time, dose: 14.0 mg/kg/injection, schedule: Q03HX024 (ip), vehicle: other): 96 % of control
- T/C (endpoint: median survival time, dose: 23.0 mg/kg/injection, schedule: Q01DX009 (ip), vehicle: other): 103 % of control
- T/C (endpoint: median survival time, dose: 23.0 mg/kg/injection, schedule: Q03HX008 (ip), vehicle: other): 93 % of control
- T/C (endpoint: median survival time, dose: 23.0 mg/kg/injection, schedule: Q03HX024 (ip), vehicle: other): 103 % of control
- T/C (endpoint: median survival time, dose: 39.0 mg/kg/injection, schedule: Q04DX003 (ip), vehicle: other): 111 % of control
- T/C (endpoint: median survival time, dose: 39.0 mg/kg/injection, schedule: Q04DX003 (oral), vehicle: other): 100 % of control
- T/C (endpoint: median survival time, dose: 39.0 mg/kg/injection, schedule: Q04DX003 (sc), vehicle: other): 106 % of control
- T/C (endpoint: median survival time, dose: 65.0 mg/kg/injection, schedule: Q01DX001 (ip), vehicle: other): 100 % of control
- T/C (endpoint: median survival time, dose: 65.0 mg/kg/injection, schedule: Q01DX009 (ip), vehicle: other): 104 % of control
- T/C (endpoint: median survival time, dose: 65.0 mg/kg/injection, schedule: Q04DX003 (ip), vehicle: other): 95 % of control
- T/C (endpoint: median survival time, dose: 65.0 mg/kg/injection, schedule: Q04DX003 (oral), vehicle: other): 103 % of control
- T/C (endpoint: median survival time, dose: 65.0 mg/kg/injection, schedule: Q04DX003 (sc), vehicle: other): 101 % of control
- T/C (endpoint: median survival time, dose: 75.0 mg/kg/injection, schedule: Q04DX003 (ip), vehicle: water): 95 % of control
- T/C (endpoint: median survival time, dose: 108.0 mg/kg/injection, schedule: Q01DX001 (ip), vehicle: other): 122 % of control
- T/C (endpoint: median survival time, dose: 108.0 mg/kg/injection, schedule: Q04DX003 (ip), vehicle: other): 100 % of control and 106 % of control
- T/C (endpoint: median survival time, dose: 108.0 mg/kg/injection, schedule: Q04DX003 (oral), vehicle: other): 118 % of control
- T/C (endpoint: median survival time, dose: 108.0 mg/kg/injection, schedule: Q04DX003 (sc), vehicle: other): 113 % of control
- T/C (endpoint: median survival time, dose: 150.0 mg/kg/injection, schedule: Q04DX003 (ip), vehicle: water): 101 % of control
- T/C (endpoint: median survival time, dose: 180.0 mg/kg/injection, schedule: Q01DX001 (ip), vehicle: other): 106 % of control
- T/C (endpoint: median survival time, dose: 180.0 mg/kg/injection, schedule: Q04DX003 (ip), vehicle: other): 105 % of control and 112 % of control
- T/C (endpoint: median survival time, dose: 180.0 mg/kg/injection, schedule: Q04DX003 (sc), vehicle: other): 108 % of control
- T/C (endpoint: median survival time, dose: 300.0 mg/kg/injection, schedule: Q04DX003 (oral), vehicle: other): 118 % of control
- T/C (endpoint: median survival time, dose: 500.0 mg/kg/injection, schedule: Q04DX003 (oral), vehicle: other): 164 % of control
- T/C (endpoint: median survival time, dose: 833.0 mg/kg/injection, schedule: Q04DX003 (ip), vehicle: other): 118 % of control
- T/C (endpoint: median survival time, dose: 833.0 mg/kg/injection, schedule: Q04DX003 (sc), vehicle: other): 160 % of control
- T/C (endpoint: median survival time, dose: 1200.0 mg/kg/injection, schedule: Q04DX003 (ip), vehicle: water): 110 % of control
- T/C (endpoint: median survival time, dose: 1300.0 mg/kg/injection, schedule: Q01DX001 (ip), vehicle: other): 104 % of control
